In patent US20250099633A1, “NTSR1-TARGETED RADIOPHARMACEUTICALS AND CHECKPOINT INHIBITOR COMBINATION THERAPY” (Fusion Pharmaceuticals Inc., priority 2022, published 2025):

Experiments:
CT-26-mNTSR1 tumor [1] = assay: Combination with checkpoint inhibitors, relative tumor volume in the CT-26-mNTSR1 mouse model; assay type: in vivo
Protocol: An in vivo study was conducted to test the effect of [^225Ac]-Compound A (as described in Example 3) combined with checkpoint inhibitors, α-CTLA-4 and α-PD-1 antibodies, on relative tumor volume in the CT-26-mNTSR1 mouse model.

CT-26-mNTSR1 tumor [2] = assay: Combination with checkpoint inhibitors, survival in the CT-26-mNTSR1 mouse model; assay type: in vivo; conditions: for Overall survival: intravenous
Protocol: An in vivo study was conducted to test the effect of [^225Ac]-Compound A (as described in Example 3) combined with checkpoint inhibitors, α-CTLA-4 and α-PD-1 antibodies, on survival in the CT-26-mNTSR1 mouse model.
Separately, an in vivo study was conducted to test the effect of [^225Ac]-Compound A (as
described in Example 4) at a different dosage in combination with checkpoint inhibitors, α-CTLA-4 and α-PD-1 antibodies, on survival in the CT-26-mNTSR1 mouse model.

CT-26-mNTSR1 tumor [3] = assay: Efficacy study in immunocompetent CT-26-mNTSR1 tumor bearing-mice (tumor volume); assay type: in vivo, mouse; conditions: different doses; CT-26-mNTSR1 syngeneic mice with an intact immune system
[4] = tested on: mouse NTSR1 overexpressing tumors; assay: [177Lu]-Compound A biodistribution in CT-26 syngeneic model; assay type: in vivo; conditions: 6-48 hours post injection
Protocol: Tumor uptake was maintained at 2.5-7% injected dose/g (ID/g) from 6-48 hours post injection.

SMILES | Efficacy (tumor volume) (CT-26-mNTSR1 tumor [1]; 0.185 MBq/kg or 0.555 MBq/kg single-dose, intravenous, co-administered with 5 mg/kg of CTLA-4 or PD-1 or both) | Tumor regression, duration (CT-26-mNTSR1 tumor [1]; 0.555 MBg/kg dose, co-administration with both CTLA-4 and PD-1) [days post-treatment] | Tumor volume (CT-26-mNTSR1 tumor [1]; 0.555 MBg/kg dose, co-administration with both CTLA-4 and PD-1, compared to vehicle control and 225Ac-radiopharmaceutical alone groups) | Tumor volume (CT-26-mNTSR1 tumor [1]; 0.555 MBq/kg single-dose, intravenous, alone, relative to the vehicle control group) | Overall survival (CT-26-mNTSR1 tumor [2]; 0.185 MBq/kg single-dose, with 5 mg/kg α-CTLA-4 or α-PD-1 (or both), compared to vehicle control or [225Ac]-Compound A alone) | Overall survival (CT-26-mNTSR1 tumor [2]; 0.555 MBq/kg single-dose, with 5 mg/kg α-CTLA-4 or α-PD-1, compared to the vehicle and [225Ac]-Compound A single treatment group) | Survival (CT-26-mNTSR1 tumor [2]; 0.555 MBq/kg, co-administration with both α-CTLA-4 and α-PD-1, compared to vehicle control or [225Ac]-Compound A with or without either antibody) | Efficacy in reducing tumor volume (CT-26-mNTSR1 tumor [3]) | Tumor uptake [4]
COc1cccc(OC)c1-c1cc(C(=O)NC2(C(=O)O)C3CC4CC(C3)CC2C4)nn1-c1ccc(C(=O)N(C)CCCN(C)CCCN(C)C(=O)CN2CCN(CC(=O)O)CCN(CC(=O)O)CCN(CC(=O)O)CC2)cc1C(C)C (stereo not drawn) [[^225Ac]-Compound A, metal not drawn] | increased efficacy was observed including tumor suppression | ≥ 40 | significantly smaller tumor volume | greater reductions in tumor volume | increased overall survival | increased overall survival | increased survival | enhanced efficacy in reducing tumor volume | –
COc1cccc(OC)c1-c1cc(C(=O)NC2(C(=O)O)C3CC4CC(C3)CC2C4)nn1-c1ccc(C(=O)N(C)CCCN(C)CCCN(C)C(=O)CN2CCN(CC(=O)O)CCN(CC(=O)O)CCN(CC(=O)O)CC2)cc1C(C)C (stereo not drawn) [[177Lu]-Compound A, metal not drawn] | – | – | – | – | – | – | – | – | 2.5-7 % injected dose/g (ID/g)
